Laboratory results: PMC3149900 (Chemical biology & drug design, 2010)

Details: PAMPA

SMILES: CC(=O)CC(c1ccccc1)c1c(O)c2ccccc2oc1=O (stereo not shown) [Warfarin, warfarin]
- Log (Pe): −4.95
